These results are taken from US11242344B2, “(4-hydroxypyrrolidin-2-yl)-heterocyclic compounds and methods of use thereof” (Genentech, Inc., priority 2017, dated 2022).

One experiment has as its target VHL Elongin B/C complex (Homo sapiens (Human), UniProt P40337). The experiment in a line: Fluorescence Polarization (FP) VHL Binding Assay. As to conditions: VHL binding, FP assay; geometric mean where more than one measurement. The method, boiled down: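 FP tracer competition using His6-tagged human VHL (E55-D213) co-expressed with Elongin B and C in E. coli, final 2.64 nM, with TAMRA-labelled VHL ligand probe at 1.67 nM final. Buffer 50 mM Tris pH 8.0, 120 mM NaCl, 0.005% NP-40, 1% DMSO; 1 h at room temperature. Pre-assay compound/protein signal subtracted; IC50 from four-parameter fit.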
Background: Fluorescence polarisation rises when a labelled molecule tumbles more slowly, as on binding a larger partner.

Another experiment deals with MYC expression. The experiment in a line: Inhibition of MYC expression in MV-4-11 cells. As to conditions: 4 h; for IC50: QuantiGene 2.0, geometric mean; for Maximum Inhibition (%): maximum inhibition of MYC expression. It counts as cell-based. On the procedure: Pharmacologic inhibition of MYC is achievable through targeting BET bromodomains through small molecule binder or degrader mechanisms. Such inhibitors may have clinical utility given the widespread pathogenetic role of MYC in cancer. See, e.g., Mertz J, et al., “Targeting MYC dependence in cancer by inhibiting BET bromodomains,” (2011) Proc. Natl. Acad. Sci. USA, Vol. 108 (40), pp. 16669-16674.
To determine the inhibition of MYC expression, MV-4-11 cells (ATCC) were plated at 10,000 cells per well in 96-well plates in RPMI1640 media supplemented with 10% fetal bovine serum and 2 mM L-glutamine. Test compounds diluted in DMSO were transferred to the cell plates, keeping final DMSO concentration consistent at 0.1%, and incubated for 4 h at 37° C. Lysis and analysis for MYC expression were carried out using QuantiGene 2.0 reagents (Affymetrix/eBioscience, probe set cat #SA-50182) and following the vendor's instructions. Luminescence was read using an EnVision plate reader (PerkinElmer) and IC50s generated in Genedata Screener using a 4-parameter non-linear regression fit.
Effective degraders will surpass this and inhibit >95% of MYC, thus following the maximum inhibition within this assay provides valuable SAR. Where more than one measurement was performed for the same assay, the value reported is the geometric mean of all values.

Each structure is given as a SMILES string.

Sequence of VHL Elongin B/C complex (P40337 whole entry, looked up): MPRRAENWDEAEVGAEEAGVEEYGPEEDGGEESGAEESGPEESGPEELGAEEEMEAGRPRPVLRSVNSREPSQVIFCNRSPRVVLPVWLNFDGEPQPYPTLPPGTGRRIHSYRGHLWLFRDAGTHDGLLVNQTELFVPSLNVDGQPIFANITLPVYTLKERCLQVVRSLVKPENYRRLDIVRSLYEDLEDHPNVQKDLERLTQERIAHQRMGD
Sequence of VHL Elongin B/C complex (Q15370 whole entry partner, looked up): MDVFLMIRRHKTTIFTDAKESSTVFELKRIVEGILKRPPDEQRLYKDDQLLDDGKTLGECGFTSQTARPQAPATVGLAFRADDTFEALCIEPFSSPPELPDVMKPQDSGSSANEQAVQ
Sequence of VHL Elongin B/C complex (Q15369 whole entry partner, looked up): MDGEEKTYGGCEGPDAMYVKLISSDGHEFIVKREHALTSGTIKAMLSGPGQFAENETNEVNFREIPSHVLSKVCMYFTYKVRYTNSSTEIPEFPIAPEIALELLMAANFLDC

Consider `Cc1ncsc1-c1ccc([C@]2(C)NC(C3C[C@@H](O)CN3C(=O)C(c3cc(OCCCCCNC(=O)c4cc5c(cc4CS(C)(=O)=O)-c4cn(C)c(=O)c6[nH]cc(c46)CN5c4ncc(F)cc4F)no3)C(C)C)=NC2=O)cc1` (single isomer, unassigned) [Example 1001.1], for which the IC50 on VHL Elongin B/C complex stood at 16.9 µM. In addition, in the experiment with MYC expression, the midpoint of inhibition, the IC50, lay at 17.4 nM and the “Maximum Inhibition (%)” value is on record as 82.3%.
The matching figures for `Cc1ncsc1-c1ccc([C@]2(C)NC(C3C[C@@H](O)CN3C(=O)C(c3cc(OCCCCCNC(=O)c4cc5c(cc4CS(C)(=O)=O)-c4cn(C)c(=O)c6[nH]cc(c46)CN5c4ncc(F)cc4F)no3)C(C)C)=NC2=O)cc1` (single isomer, unassigned) [Example 1001.2]: 0.795 µM, 1.71 nM and 98.4%.
The corresponding values for `Cc1ncsc1-c1ccc([C@]2(C)NC(C3C[C@@H](O)CN3C(=O)C(c3cc(OCCCCCNC(=O)c4cc5c(cc4CS(C)(=O)=O)-c4cn(C)c(=O)c6[nH]cc(c46)CN5c4ncc(F)cc4F)no3)C(C)C)=NC2=O)cc1` (single isomer, unassigned) [Example 1001.3] are above 100 µM, 27.4 nM and 79.2%.
Turning to `Cc1ncsc1-c1ccc([C@]2(C)NC(C3C[C@@H](O)CN3C(=O)[C@@H](NC(=O)CCCCCCCCCCNC(=O)c3cc4c(cc3CS(C)(=O)=O)-c3cn(C)c(=O)c5[nH]cc(c35)CN4c3ncc(F)cc3F)C(C)(C)C)=NC2=O)cc1` (single isomer, unassigned) [Example 1005.1], the IC50 at VHL Elongin B/C complex was 255 µM.

By IC50 is commonly meant the point on the concentration scale where inhibition reaches its midpoint. A higher IC50 goes with weaker potency in that assay.
